Where two headings read alike, the source gives them in different places.
Key:
[1] = test system: LXRa (NR1H2); test: NCGC_LXR_Agonist: GAL4 BLAM Reporter gene assay: LXRa; type: cell-based, human; conditions: agonist mode
Method: These assays measure binding constants and enzyme inhibition values for nuclear receptors. The targets include [drawing 67] , [drawing 68] , [drawing 69] , [drawing 70] , [drawing 71] , [drawing 72] , [drawing 73] , [drawing 74] , [drawing 75] and [drawing 76] . Each of the nuclear receptor targets was measured in agonist mode. Assays were run at the NIH Chemical Genomics Center (Rockville, MD).
Cell-based HTS Assays: These assays measuring binding constants and enzyme inhibition values for nuclear receptors. The targets include AR, ER, FXR, LXR, PPARα, PPARδ, PPARγ, RXRα, RXRβ and PXR. Each of the nuclear receptor targets was measured in both agonist and antagonist mode, but the antagonist data is still undergoing analysis due to possible interference between cytotoxicity and assay activity, so antagonist mode data were not used in the present analysis. Assays were run at the NIH Chemical Genomics Center (Rockville, MD) as part of the Tox21 collaboration. […] The R^2 was required to be ≥0.5. Values where only the highest concentration exceeded 50% activity were excluded to eliminate weak or false positives. Detailed description of the methods, data and analysis methods for this dataset will be presented in a separate publication.

[2] = test system: Rat Liver; conditions: ref ToxRefDB, cited from earlier work
[3] = test system: Rat Liver; conditions: ref ToxRefDB, cited from earlier work; remark: listed apart in the source
[4] = test system: Rat Liver; conditions: ref ToxRefDB, cited from earlier work; remark: listed apart in the source
[5] = molecular target: T1, PXR (NR1I2) (Homo sapiens, UniProt O75469); test: ATG_PXRE_CIS: Factorial reporter gene assay (HepG2); type: cell-based; design: endogenous in cells; host or cells: HepG2; conditions: HepG2 reporter
T1 sequence (O75469 1-434): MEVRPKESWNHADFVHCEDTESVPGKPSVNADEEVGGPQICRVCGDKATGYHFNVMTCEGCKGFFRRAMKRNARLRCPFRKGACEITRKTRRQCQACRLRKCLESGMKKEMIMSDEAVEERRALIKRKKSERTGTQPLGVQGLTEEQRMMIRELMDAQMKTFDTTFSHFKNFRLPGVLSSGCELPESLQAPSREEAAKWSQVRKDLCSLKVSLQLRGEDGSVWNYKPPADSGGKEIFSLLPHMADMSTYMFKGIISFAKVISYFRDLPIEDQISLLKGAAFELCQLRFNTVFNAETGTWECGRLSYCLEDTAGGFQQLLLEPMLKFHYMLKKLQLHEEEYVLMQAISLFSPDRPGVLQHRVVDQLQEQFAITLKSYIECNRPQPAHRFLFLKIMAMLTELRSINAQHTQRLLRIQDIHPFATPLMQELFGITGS
Outline: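 Compounds at seven concentrations (top at MTC, threefold serial) were applied to transfected HepG2 hepatoma cells, with PXRE scored by cis-element reporters and ERRg, FXR and PPARg scored by trans one-hybrid nuclear receptor reporters.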

[6] = test system: CYP3A4; test: CLZD_CYP3A4: Change in expression of CYP3A4 (primary human hepatocytes); type: cell-based; conditions: 24 hr
Outline: (§1)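 Cultured primary human hepatocytes treated with chemicals for 6, 24 or 48 hr across five concentrations spanning 0.004-40 µM, then transcript level measured by quantitative nuclease protection in a multiplexed format.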

[7] = test system: HMGCS2; test: CLZD_HMGCS2: Change in expression of HMGCS2 (primary human hepatocytes); type: cell-based; conditions: 24 hr
Method: This is a collection of multiplexed gene expression assays focused on Phase I and II xenobiotic metabolizing enzymes and transporters. Human primary cell cultures were treated with chemicals at 5 concentrations (0.004-40 [drawing 42] M) for 6, 24 and 48 hr. Concentration- and time-response profiles of chemicals were measured by the expression of key nuclear receptor target genes, activities of CYP1A enzymes (EROD), and cell morphology. Fourteen gene targets were monitored by quantitative nuclease protection assay including: six representative cytochrome P-450 genes, four hepatic transporters, three Phase II conjugating enzymes, and one endogenous metabolism gene involved in cholesterol synthesis. The target genes associated with nuclear receptor pathways are as follows: [drawing 43] and [drawing 44] with [drawing 45]; [drawing 46] , [drawing 47] , [drawing 48] , [drawing 49] , [drawing 50] and [drawing 51] with [drawing 52]; [drawing 53] , [drawing 54] , [drawing 55] and [drawing 56] with [drawing 57]; [drawing 58] with [drawing 59]; and [drawing 60] with [drawing 61] . Assays were run in primary human hepatocyte cultures by CellzDirect Invitrogen Inc. (Durham, NC), in collaboration with EPA.
Multiplexed Gene Expression in Human Primary Hepatocytes: This is a collection of multiplexed gene expression assays focused on Phase I and II metabolic enzymes and transporters. […] Fourteen gene targets were monitored by quantitative nuclease protection assay: six representative cytochrome P450 genes, four hepatic transporters, three Phase II conjugating enzymes, and one endogenous metabolism gene involved in cholesterol synthesis. Cells were exposed at 5 concentrations (0.004-40 µM) for 6, 24 or 48 hr. Gene targets are sentinels for five nuclear receptor signaling pathways: AhR, CAR, PXR, FXR, and PPARα. All gene are associated with nuclear receptor pathways: CYP1A1 and CYP1A2 with AHR; ABCB1, ABCG2, CYP2B6, CYP2C9, CYP2C19 and UGT1A1 with CAR; CYP3A4, GSTA2, SLCO1B1 and SULT2A1 with PXR; HMGCS2 with PPARA; and ABCB11 with FXR. […] Detailed description of the methods, data and analysis methods for this dataset will be presented in a separate publication.

[8] = test system: Mouse Liver; conditions: ref ToxRefDB, cited from earlier work
[9] = test system: Mouse Liver; conditions: chronic study, mouse liver; ref ToxRefDB; cited from earlier work
[10] = test system: Mouse Liver; conditions: chronic study, mouse liver; ref ToxRefDB; cited from earlier work; remark: listed apart in the source
[11] = molecular target: T2, LXRa (NR1H3) (Homo sapiens, UniProt Q13133); test: ATG_LXRa_TRANS: Factorial reporter gene assay (HepG2); type: cell-based
T2 construct: expressed in transfected cells; host or cells: HepG2
T2 sequence (Q13133 1-447): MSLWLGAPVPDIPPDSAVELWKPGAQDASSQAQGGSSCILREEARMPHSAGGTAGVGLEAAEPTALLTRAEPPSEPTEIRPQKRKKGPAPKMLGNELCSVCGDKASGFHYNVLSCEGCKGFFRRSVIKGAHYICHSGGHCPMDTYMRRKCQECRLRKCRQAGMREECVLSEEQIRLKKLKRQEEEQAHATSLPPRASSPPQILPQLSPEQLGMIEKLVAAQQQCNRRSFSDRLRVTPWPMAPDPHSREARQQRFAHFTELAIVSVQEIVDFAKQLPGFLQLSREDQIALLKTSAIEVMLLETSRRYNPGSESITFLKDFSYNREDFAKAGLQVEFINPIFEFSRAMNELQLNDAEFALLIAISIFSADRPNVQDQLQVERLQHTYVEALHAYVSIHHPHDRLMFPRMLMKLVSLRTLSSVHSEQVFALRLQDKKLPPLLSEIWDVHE
Method: (§2) A multiple reporter transcription unit (MRTU) library consisting of 48 transcription factor binding sites was transfected into the HepG2 human liver hepatoma cell line. In addition to the cis-acting reporter genes (CIS), a modification of the approach was used to generate a trans-system (TRANS) with a mammalian one-hybrid assay consisting of an additional 25 MRTU library reporting the activity of nuclear receptor super-family members. […] These assays were performed by Attagene Inc. (Morrisville NC) under contract to EPA.
(§3) In addition to the cis-acting reporter genes (CIS), a modification of the approach was used to generate a trans-system (TRANS) with a mammalian one-hybrid assay consisting of an additional 25 MRTU library reporting the activity of nuclear receptor super-family members. […] Chemicals were then tested in the CIS and TRANS assays at seven concentrations starting at the MTC and followed by three-fold serial dilutions. These assays were performed by Attagene Inc. (Morrisville NC) under contract to EPA. Detailed description of the methods, data and analysis methods for this dataset will be presented in a separate publication.

[12] = molecular target: T3, AHR (aryl hydrocarbon receptor) (Homo sapiens, UniProt P35869); test: ATG_Ahr_CIS: Factorial reporter gene assay (multiplexed transcription reporter, HepG2); type: cell-based; conditions: HepG2 reporter
T3 construct: endogenous in cells; host or cells: HepG2
T3 sequence (P35869 11-848): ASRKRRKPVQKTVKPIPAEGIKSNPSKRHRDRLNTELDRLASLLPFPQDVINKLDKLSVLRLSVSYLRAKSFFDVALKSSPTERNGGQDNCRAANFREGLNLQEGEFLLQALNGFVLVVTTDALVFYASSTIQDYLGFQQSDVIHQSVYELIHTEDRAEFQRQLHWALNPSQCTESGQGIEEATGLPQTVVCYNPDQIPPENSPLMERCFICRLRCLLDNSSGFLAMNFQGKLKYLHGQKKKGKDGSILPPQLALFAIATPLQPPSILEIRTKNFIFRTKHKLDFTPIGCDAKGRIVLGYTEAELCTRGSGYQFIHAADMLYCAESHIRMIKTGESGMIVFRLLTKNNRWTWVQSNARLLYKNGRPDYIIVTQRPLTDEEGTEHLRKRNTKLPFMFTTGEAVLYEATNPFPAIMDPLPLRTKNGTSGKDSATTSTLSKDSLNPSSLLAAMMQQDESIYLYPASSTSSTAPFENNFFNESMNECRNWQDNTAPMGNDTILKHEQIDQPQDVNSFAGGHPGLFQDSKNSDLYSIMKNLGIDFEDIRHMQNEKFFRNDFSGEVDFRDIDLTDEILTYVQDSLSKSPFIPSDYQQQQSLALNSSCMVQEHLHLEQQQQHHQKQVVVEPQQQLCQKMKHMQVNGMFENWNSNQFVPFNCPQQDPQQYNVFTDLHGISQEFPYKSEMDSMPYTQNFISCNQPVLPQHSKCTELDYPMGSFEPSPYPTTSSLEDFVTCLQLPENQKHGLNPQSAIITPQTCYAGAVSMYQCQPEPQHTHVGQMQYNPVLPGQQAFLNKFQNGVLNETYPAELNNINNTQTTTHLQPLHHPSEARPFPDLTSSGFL
Outline: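 Seven concentrations per chemical, three-fold dilutions down from the MTC, were tested in HepG2 hepatoma cells. Those cells carried a multiple reporter transcription unit library, read either as cis transcription-factor-site reporters or as a trans mammalian one-hybrid panel for nuclear receptors.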

[13] = test system: CYP2B6; test: CLZD_CYP2B6: Change in expression of CYP2B6 (primary human hepatocytes); type: cell-based; conditions: 24 hr
Outline: as §1

[14] = molecular target: T4, CAR (NR1I3) (Homo sapiens, UniProt Q14994); test: ATG_PBREM_CIS: Factorial reporter gene assay (HepG2); type: cell-based; design: endogenous in cells; host or cells: HepG2; conditions: HepG2 reporter
T4 sequence (Q14994 1-352): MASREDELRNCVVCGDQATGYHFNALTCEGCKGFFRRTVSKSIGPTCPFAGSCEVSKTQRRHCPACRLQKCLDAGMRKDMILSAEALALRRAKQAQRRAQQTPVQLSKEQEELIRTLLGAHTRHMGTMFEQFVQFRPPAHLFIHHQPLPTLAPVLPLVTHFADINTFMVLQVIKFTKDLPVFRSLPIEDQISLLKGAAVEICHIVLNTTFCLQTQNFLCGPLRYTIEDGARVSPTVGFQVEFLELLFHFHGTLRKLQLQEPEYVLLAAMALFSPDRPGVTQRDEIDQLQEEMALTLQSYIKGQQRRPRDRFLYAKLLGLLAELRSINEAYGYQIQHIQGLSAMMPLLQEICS
Method: as §2, §3

Structure (SMILES)	NCGC_LXR_Agonist [1]	CHR_Rat_Liver_1_AnyLesion ([2]; chronic study, rat liver)	CHR_Rat_Liver_2_PreneoplasticLesion ([3]; chronic study, rat liver)	CHR_Rat_Liver_3_NeoplasticLesion ([4]; chronic study, rat liver)	ATG_PXRE_CIS [5]	CLZD_CYP3A4_24 [6]	CLZD_HMGCS2_24 [7]	CHR_Mouse_Liver_1_AnyLesion ([8]; chronic study, mouse liver)	CHR_Mouse_Liver_2_PreneoplasticLesion [9]	CHR_Mouse_Liver_3_NeoplasticLesion [10]	ATG_LXRa_TRANS ([11]; HepG2 reporter)	ATG_Ahr_CIS [12]	CLZD_CYP2B6_24 [13]	ATG_PBREM_CIS [14]	CHR_Rat_Liver_1_AnyLesion ([2]; chronic rat study, liver)	CHR_Rat_Liver_2_PreneoplasticLesion ([3]; chronic rat study, liver)	CHR_Rat_Liver_3_NeoplasticLesion ([4]; chronic rat study, liver)	ATG_LXRa_TRANS ([11]; HepG2)	CHR_Mouse_Liver_1_AnyLesion ([8]; chronic mouse study, liver)
CCCOc1nn(C(=O)[N-]S(=O)(=O)c2ccccc2C(=O)OC)c(=O)n1C.[Na+] [r264]	4.648	0	0	0	4.252	–	–	–	–	–	–	–	–	–	–	–	–	–	–
COc1cc(OC)nc(Sc2cccc(Cl)c2C(=O)[O-])n1.[Na+] [r275]	–	6	6	0	–	4.874	5.29	6	6	6	–	–	–	–	–	–	–	–	–
CCOC(=O)C(C)Oc1ccc(Oc2cnc3cc(Cl)ccc3n2)cc1 (stereo not shown) [r279]	–	6	0	0	4.523	–	5.409	6	6	6	4.824	–	–	–	–	–	–	–	–
CCCN(CC)CC1COC2(CCC(C(C)(C)C)CC2)O1 (stereo not shown) [r286]	–	0	0	0	4.886	5.192	–	–	–	–	–	4.444	4.532	4.721	–	–	–	–	–
C[N+]1(C)CCCCC1.[Cl-] [row 193]	–	–	–	–	–	–	5.889	–	–	–	–	–	–	–	0	0	0	–	–
O=C(NC(=O)c1c(F)cccc1F)Nc1ccc(OC(F)(F)C(F)OC(F)(F)F)c(Cl)c1 (stereo not shown) [row 223]	4.536	–	–	–	–	–	–	–	–	–	–	–	–	–	6	0	0	4.523	6

Reference: publication PMC3038857, “Using Nuclear Receptor Activity to Stratify Hepatocarcinogens” (PLoS ONE, 2011)
